Results reported in PMC9016712 (ACS Chemical Biology, 2022).
Read-outs that look alike come from different tables or passages of the source. [ ]: non-standard residue; d: D form. Dap = NC[C@H](N)C(=O)O

What was measured:
MASP-2 [1] = assay: recombinant catalytic fragment of human MASP-2; details: up to 1 h
trypsin = details: fold more potent than tested SFMI2 variants; cited from earlier work
MASP-2 [2] = details: cited from earlier work
MASP-1 = details: cited from earlier work

Row | cleaved bond (MASP-2 [1]) | Substance | potency on trypsin relative to SFMI2 variants (trypsin) | MASP-2 inhibition (MASP-2 [2]) | MASP-2 inhibition (MASP-2 [2]; listed as wild-type SFTI) | MASP-1 inhibition (MASP-1)
1 | Arg5-Ser6, 1 h | Ac-GY[Dap]SRSYPPVCIPD-NH2 | – | – | – | –
2 | – | SFTI: 14-amino acid sunflower trypsin inhibitor, smallest natural canonical trypsin inhibitor, cyclic | about 1000 fold | does not inhibit the MASPs | does not inhibit MASP-2 at all | does not inhibit the MASPs
3 | Arg5-Ser6, 1 h | HELM PEPTIDE1{[ac].G.Y.C.S.R.S.Y.P.P.V.C.I.P.D.[am]}$PEPTIDE1,PEPTIDE1,4:R3-12:R3$$$V2.0 (SMILES CC[C@H](C)[C@H](NC(=O)[C@@H]1CSSC[C@H](NC(=O)[C@H](Cc2ccc(O)cc2)NC(=O)CNC(C)=O)C(=O)N[C@@H](CO)C(=O)N[C@@H](CCCNC(=N)N)C(=O)N[C@@H](CO)C(=O)N[C@@H](Cc2ccc(O)cc2)C(=O)N2CCC[C@H]2C(=O)N2CCC[C@H]2C(=O)N[C@@H](C(C)C)C(=O)N1)C(=O)N1CCC[C@H]1C(=O)N[C@@H](CC(=O)O)C(N)=O) | – | – | – | –
